Read-outs that look alike come from different tables or passages of the source.
Key:
Assay type in all cases: cell-based
A549 cells = assay: modified MTT method, proliferation of A549 cells; details: Homo sapiens, read-out: IC50 on the growth of A549 cells
In short: (§1)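 Adherent cells were dosed after attachment, suspension cells at seeding, at 2, 10, 50, 250 and 500 µM in RPMI 1640 (triplicate wells; 0.5% and 1% DMSO solvent controls), at 37°C, 5% CO2. MTT was added, followed by SDS/isobutanol/HCl solubilisation and OD 570 nm. Inhibition was taken versus control (versus solvent if DMSO inhibition >15%), and IC50 by LOGIT.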

PC-3 cells = assay: modified MTT method, proliferation of PC-3 cells; details: Homo sapiens, read-out: IC50 on the growth of PC-3 cells
In short: as §1

Hep2 cells = assay: modified MTT method, proliferation of Hep2 cells; details: Homo sapiens, HEp-2, 72 h, secondary screening
In short: (§2)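 Log-phase MKN-28, HT-29 or Hep2 cells exposed at 37°C, 5% CO2 to 2–500 µM test samples (DMSO solvent controls 0.5% and 1%), then MTT added and formazan dissolved in SDS/isobutanol/HCl; OD read at 570 nm. Inhibition rate vs control (or solvent) wells; IC50 by LOGIT method, 72 h.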

MKN-28 cells = assay: modified MTT method, proliferation of MKN-28 cells; details: Homo sapiens, MKN-28, 72 h, secondary screening
In short: as §2

K562 cells = assay: modified MTT method, proliferation of K562 cells; details: Homo sapiens, read-out: IC50 on the growth of K562 cells
In short: as §1

HL-60 cells = assay: modified MTT method, proliferation of HL-60 cells; details: Homo sapiens, read-out: IC50 on the growth of HL-60 cells
In short: as §1

7 human tumor cell lines = assay: modified MTT method, summary over the panel of human tumor cell lines
Text: HL-60: (human promyelocytic leukemia cell line); K562 (human chronic myelocytic leukemia cell line); HT-29 (human colon cancer cell line); PC-3 (human prostate cancer cell line); A549 (human non-small cell lung cancer cell line); MKN-28 (human gastric cancer cell line); Hep2 (human laryngeal cancer cell line), all of which were purchased from Cell Bank of Shanghai Institutes for Biological Sciences, the Chinese Academy of Sciences.
Influence of the five test samples on the proliferation of 7 human tumor cell lines was determined via a modified MTT method.
Cells in logarithmic growth phase were taken, adjusted to a certain concentration and then added into a 96 well culture plate. After culture of adherent cells for a period until adherence, the test samples were added; and for suspension cells, the test samples were added after inoculation. […] After dissolving in uniformity, it was continued to be placed in the incubator at 37°C, 5% CO2 for a period of time, and the OD value of each well was determined under a wavelength of 570 nm with a microplate reader, according to which the results were calculated.
The inhibition rate was calculated by using Microsoft Excel 2003, and median inhibitory concentration IC50 was calculated with a LOGIT method, which was used as an indicator for judging the inhibitory capability.

HT-29 cells = assay: modified MTT method, proliferation of HT-29 cells; details: Homo sapiens
In short: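 HT-29 human colon cancer cells in logarithmic growth were seeded into 96-well plates and, once adherent, exposed to test samples at 2, 10, 50, 250 and 500 µM (three parallel wells, 10 µl/well). Plates were incubated at 37°C, 5% CO2, then given MTT (5 mg/ml, 20 µl/well) and a 10% SDS - 5% isobutanol - 0.012 mol/L HCl solubilizer. OD was read at 570 nm, and IC50 was derived by the LOGIT method.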

[1] = Batch 1, read-out: IC50 on the growth of Hep2 cells (72 h)
[2] = Batch 2, read-out: IC50 on the growth of Hep2 cells (72 h)
[3] = Batch 3, read-out: IC50 on the growth of Hep2 cells (72 h)
[4] = average, read-out: IC50 on the growth of Hep2 cells (72 h)
[5] = Average, read-out: IC50 on the growth of MKN-28 cells (72 h)
[6] = Batch 1, read-out: IC50 on the growth of MKN-28 cells (72 h)
[7] = Batch 2, read-out: IC50 on the growth of MKN-28 cells (72 h)
[8] = Batch 3, read-out: IC50 on the growth of MKN-28 cells (72 h)
[9] = HT-29, 24 h, preliminary screening, Batch 1, 24 h, read-out: IC50 on the growth of HT-29 cells
[10] = HT-29, 24 h, preliminary screening, Batch 2, 24 h, read-out: IC50 on the growth of HT-29 cells
[11] = HT-29, 48 h, preliminary screening, Batch 1, 48 h, read-out: IC50 on the growth of HT-29 cells
[12] = HT-29, 48 h, preliminary screening, Batch 2, 48 h, read-out: IC50 on the growth of HT-29 cells
[13] = HT-29, 72 h, preliminary screening, Batch 1, 72 h, read-out: IC50 on the growth of HT-29 cells
[14] = HT-29, 72 h, preliminary screening, Batch 2, 72 h, read-out: IC50 on the growth of HT-29 cells
[15] = HT-29, 72 h, secondary screening, 72 h, Batch 1, read-out: IC50 on the growth of HT-29 cells (72 h)
[16] = HT-29, 72 h, secondary screening, 72 h, Batch 2, read-out: IC50 on the growth of HT-29 cells (72 h)
[17] = HT-29, 72 h, secondary screening, 72 h, Batch 3, read-out: IC50 on the growth of HT-29 cells (72 h)
[18] = HT-29, 72 h, secondary screening, 72 h, average, read-out: IC50 on the growth of HT-29 cells (72 h)

C[C@@H]1CC[C@H]2[C@@H](C)C(=O)O[C@@H]3O[C@@]4(C)CC[C@@H]1[C@]32OO4 [artemisinin]
IC50 (A549 cells; A549, 24 h, Batch 1, 24 h): > 1 mM
IC50 (A549 cells; A549, 24 h, Batch 2, 24 h): 0.421 mM
IC50 (A549 cells; A549, 48 h, Batch 1, 48 h): > 1 mM
IC50 (A549 cells; A549, 48 h, Batch 2, 48 h): > 1 mM
IC50 (A549 cells; A549, 72 h, Batch 1, 72 h): > 1 mM
IC50 (A549 cells; A549, 72 h, Batch 2, 72 h): > 1 mM
IC50 (PC-3 cells; PC-3, 24 h, Batch 1, 24 h): > 1 mM
IC50 (PC-3 cells; PC-3, 24 h, Batch 2, 24 h): > 1 mM
IC50 (PC-3 cells; PC-3, 48 h, Batch 1, 48 h): > 1 mM
IC50 (PC-3 cells; PC-3, 48 h, Batch 2, 48 h): > 1 mM
IC50 (PC-3 cells; PC-3, 72 h, Batch 1, 72 h): > 1 mM
IC50 (PC-3 cells; PC-3, 72 h, Batch 2, 72 h): > 1 mM
IC50 (Hep2 cells; [1]): 350 µM
IC50 (Hep2 cells; [2]): 271 µM
IC50 (Hep2 cells; [3]): > 1000 µM
IC50 (Hep2 cells; [4]): 952 µM
IC50 (MKN-28 cells; [5]): 970 µM
IC50 (MKN-28 cells; [6]): 588 µM
IC50 (MKN-28 cells; [7]): 1440 µM
IC50 (MKN-28 cells; [8]): 1610 µM
IC50 (K562 cells; K562, 24 h, Batch 1, 24 h): > 1000 µM
IC50 (K562 cells; K562, 24 h, Batch 2, 24 h): > 1000 µM
IC50 (K562 cells; K562, 24 h, Batch 3, 24 h): > 1000 µM
IC50 (K562 cells; K562, 48 h, Batch 1, 48 h): > 1000 µM
IC50 (K562 cells; K562, 48 h, Batch 2, 48 h): > 1000 µM
IC50 (K562 cells; K562, 48 h, Batch 3, 48 h): 991 µM
IC50 (K562 cells; K562, 72 h, Batch 1, 72 h): > 1000 µM
IC50 (K562 cells; K562, 72 h, Batch 2, 72 h): 518 µM
IC50 (K562 cells; K562, 72 h, Batch 3, 72 h): 449 µM
IC50 (HL-60 cells; HL-60, 24 h, Batch 1, 24 h): > 1000 µM
IC50 (HL-60 cells; HL-60, 24 h, Batch 2, 24 h): 750 µM
IC50 (HL-60 cells; HL-60, 48 h, Batch 1, 48 h): > 1000 µM
IC50 (HL-60 cells; HL-60, 48 h, Batch 2, 48 h): 331 µM
IC50 (HL-60 cells; HL-60, 72 h, Batch 1, 72 h): > 1000 µM
IC50 (HL-60 cells; HL-60, 72 h, Batch 2, 72 h): 577 µM
inhibitory effect on the 7 human tumor cell lines in vitro (7 human tumor cell lines; HL-60, K562, A549, HT-29, PC-3, MKN-28, Hep2): no apparent inhibitory effect
IC50 (HT-29 cells; [9]): > 1000 µM
IC50 (HT-29 cells; [10]): > 1000 µM
IC50 (HT-29 cells; [11]): > 1000 µM
IC50 (HT-29 cells; [12]): > 1000 µM
IC50 (HT-29 cells; [13]): > 1000 µM
IC50 (HT-29 cells; [14]): > 1000 µM
IC50 (HT-29 cells; [15]): 2350 µM
IC50 (HT-29 cells; [16]): 773 µM
IC50 (HT-29 cells; [17]): 437 µM
IC50 (HT-29 cells; [18]): 545 µM

C[C@H]1[C@H](OC(=O)CCC(=O)O)O[C@@H]2O[C@@]3(C)CC[C@H]4[C@H](C)CC[C@@H]1[C@@]24OO3 [artesunate]
IC50 (A549 cells; A549, 24 h, Batch 1, 24 h): > 1 mM
IC50 (A549 cells; A549, 24 h, Batch 2, 24 h): > 1 mM
IC50 (A549 cells; A549, 48 h, Batch 1, 48 h): > 1 mM
IC50 (A549 cells; A549, 48 h, Batch 2, 48 h): 0.272 mM
IC50 (A549 cells; A549, 72 h, Batch 1, 72 h): > 1 mM
IC50 (A549 cells; A549, 72 h, Batch 2, 72 h): 0.225 mM
IC50 (PC-3 cells; PC-3, 24 h, Batch 1, 24 h): > 1 mM
IC50 (PC-3 cells; PC-3, 24 h, Batch 2, 24 h): > 1 mM
IC50 (PC-3 cells; PC-3, 48 h, Batch 1, 48 h): > 1 mM
IC50 (PC-3 cells; PC-3, 48 h, Batch 2, 48 h): > 1 mM
IC50 (PC-3 cells; PC-3, 72 h, Batch 1, 72 h): > 1 mM
IC50 (PC-3 cells; PC-3, 72 h, Batch 2, 72 h): > 1 mM
IC50 (Hep2 cells; [1]): 119 µM
IC50 (Hep2 cells; [2]): 93.2 µM
IC50 (Hep2 cells; [3]): 212 µM
IC50 (Hep2 cells; [4]): 149 µM
IC50 (MKN-28 cells; [5]): 27.9 µM
IC50 (MKN-28 cells; [6]): 35.3 µM
IC50 (MKN-28 cells; [7]): 28.1 µM
IC50 (MKN-28 cells; [8]): 21.4 µM
IC50 (K562 cells; K562, 24 h, Batch 1, 24 h): > 1000 µM
IC50 (K562 cells; K562, 24 h, Batch 2, 24 h): > 1000 µM
IC50 (K562 cells; K562, 24 h, Batch 3, 24 h): 494 µM
IC50 (K562 cells; K562, 48 h, Batch 1, 48 h): 322 µM
IC50 (K562 cells; K562, 48 h, Batch 2, 48 h): > 1000 µM
IC50 (K562 cells; K562, 48 h, Batch 3, 48 h): 141 µM
IC50 (K562 cells; K562, 72 h, Batch 1, 72 h): 39.3 µM
IC50 (K562 cells; K562, 72 h, Batch 2, 72 h): > 1000 µM
IC50 (K562 cells; K562, 72 h, Batch 3, 72 h): 90.1 µM
IC50 (HL-60 cells; HL-60, 24 h, Batch 1, 24 h): > 1000 µM
IC50 (HL-60 cells; HL-60, 24 h, Batch 2, 24 h): 269 µM
IC50 (HL-60 cells; HL-60, 48 h, Batch 1, 48 h): > 1000 µM
IC50 (HL-60 cells; HL-60, 48 h, Batch 2, 48 h): 39.5 µM
IC50 (HL-60 cells; HL-60, 72 h, Batch 1, 72 h): > 1000 µM
IC50 (HL-60 cells; HL-60, 72 h, Batch 2, 72 h): 145 µM
inhibitory effect in vitro (7 human tumor cell lines; on HL-60, K562, MKN-28): only shows inhibitory effect
IC50 (HT-29 cells; [9]): > 1000 µM
IC50 (HT-29 cells; [10]): 323 µM
IC50 (HT-29 cells; [11]): > 1000 µM
IC50 (HT-29 cells; [12]): > 1000 µM
IC50 (HT-29 cells; [13]): > 1000 µM
IC50 (HT-29 cells; [14]): 438 µM
IC50 (HT-29 cells; [15]): 328 µM
IC50 (HT-29 cells; [16]): 306 µM
IC50 (HT-29 cells; [17]): 200 µM
IC50 (HT-29 cells; [18]): 225 µM

Reference: patent publication EP2926811A1, “ARTEMETHER-CONTAINING PHARMACEUTICAL COMPOSITION, PREPARATION, AND USE THEREOF” (Kunming Pharmaceutical Corp., priority 2012, dated 2014)
